Assay results from patent US20220370418A1, “PHARMACEUTICAL COMBINATIONS COMPRISING A FURAZANOBENZIMIDAZOLES AND A CD40 AGONIST FOR USE IN THE TREATMENT OF NEOPLASTIC DISEASES” (Basilea Pharmaceutica International AG, priority 2019, published 2022).

Columns and labels:
SB28 glioma [1] = assay: Survival in syngeneic orthotopic SB28 glioma mouse model; assay type: in vivo, C57BL/6 mice
SB28 glioma [2] = assay: Survival in syngeneic orthotopic SB28 glioma model in T- and B-cell deficient RAG1 knockout mice; assay type: in vivo, C57BL/6 RAG1 knockout mice
GL261 glioma = assay: Survival in syngeneic orthotopic highly invasive GL261 glioma mouse model; assay type: in vivo, C57BL/6 mice
[3] = cited from earlier work
[4] = twenty-nine patients, doses from 0.01 to 0.3 mg/kg; cited from earlier work
[5] = Log-rank (Mantel-Cox) analysis, n=8-10 mice per group

| Molecule | survival of SB28 glioma bearing mice (in words, FIG. 1) (SB28 glioma [1]; [5]) | median survival increase versus control (SB28 glioma [1]; SB28 intra-cranial, C57BL/6 mice, BAL101553 25 mg/kg orally daily day 5-9, 12-16, 19-23, 26-30, anti-CD40 antibody 100 μg per animal IP days 7, 12, 16) [%] | median survival increase, less than in the combination regimen (SB28 glioma [1]; single agent versus combination, SB28, C57BL/6 mice) [%] | survival of SB28 glioma bearing immunodeficient (RAG1 KO) mice (in words, FIG. 2) (SB28 glioma [2]; [5]) | median survival increase versus control (SB28 glioma [2]; SB28 intra-cranial, RAG1 KO mice, same treatment schedule as Example 1) [%] | median survival increase, less than measured in the combination regimen (SB28 glioma [2]; single agent versus combination, SB28, RAG1 KO mice) [%] | median survival increase versus control (GL261 glioma; GL261 intra-cranial, C57BL/6 mice, same treatment schedule as Examples 1 and 2) [%] | survival of GL261 glioma bearing mice (in words, FIG. 3) (GL261 glioma; Log-rank (Mantel-Cox) analysis, n=10 mice per group) | median survival increase, less than measured in the combination regimen (GL261 glioma; single agent versus combination, GL261, C57BL/6 mice) [%] | water solubility (in words) [3] | maximum tolerated dose (MTD) [4] [mg/kg] |
| --- | --- | --- | --- | --- | --- | --- | --- | --- | --- | --- | --- |
| N#CCCNc1nonc1-c1nc2ccccc2n1CC(=O)c1ccc(NC(=O)[C@@H](N)CCCCN)cc1 [BAL101553, (S)-2,6-Diamino-hexanoic acid [4-(2-{2-[4-(2-cyano-ethylamino)-furazan-3-yl]-benzoimidazol-1-yl}-acetyl)-phenyl]-amide] | statistically significant but smaller survival benefit than the combined regimen | 55 | 26 | statistically significant, but smaller survival benefit than the combined regimen | 33 | 23 | 18 | do not show any significant prolongation of survival | 25 | highly water-soluble | – |
| CP-870,893: fully human IgG2 agonistic CD40 antibody developed by Pfizer | – | – | – | – | – | – | – | – | – | – | 0.2 |
